Assay [1] concerns A549. Nature of the assay: 72-h MTT cytotoxicity assay, A549. The assay is classed as cell-based, human. The following applies: Homo sapiens, A549, read-out: 72-h MTT in vitro IC50 (μM) A549; Table 1; 72 h. As for the experimental part:
In short: cells were seeded into 96-well plates according to doubling time and incubated overnight at 37° C. Test compounds were made up in DMSO and a 1/3 dilution series prepared in 100 μL cell media, added to cells (in triplicates) and incubated for 72 ho at 37° C. MTT was made up as a stock of 5 mg/mL in cell media and filter-sterilised. Media was removed from cells followed by a wash with 200 μL PBS. MTT solution was then added at 20 μL per well and incubated in the dark at 37° C. for 4 h. MTT solution was removed and cells again washed with 200 μL PBS. MTT dye was solubilised with 200 μL per well of DMSO with agitation.
A general note: Tetrazolium assays rely on reduction of a dye to a coloured formazan, in cell work by metabolically active cells.

The target in assay [2] is T1, CDK2/cyclin E (Homo sapiens, UniProt P24941).
T1 construct: His6
The assay is described as follows: Kinase assay CDK2/cyclin E. The assay is classed as biochemical. To be noted: Table 1; read-out: Kinase inhibition, IC50 (μM) CDK2/E.

The target in assay [3] is CDK4/cyclin D1 (Homo sapiens, UniProt P11802). The assay is described as follows: Kinase assay CDK4/cyclin D1.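 Further: Enzyme: His6-tagged recombinant human CDK4 produced in baculovirus-infected Sf9 insect cells and purified by metal-chelate chromatography.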
Assay [4] deals with HT29. Nature of the assay: 72-h MTT cytotoxicity assay, HT29. It counts as cell-based. To be noted: Homo sapiens, HT-29, read-out: 72-h MTT in vitro IC50 (μM) HT29; Table 1; 72 h. As for the experimental part: (§1) The compounds from the examples above were subjected to a standard cellular proliferation assay using human tumour cell lines obtained from the ATCC (American Type Culture Collection, 10801 University Boulevard, Manessas, Va. 20110-2209, USA). Standard 72-h MTT (thiazolyl blue; 3-[4,5-dimethylthiazol-2-yl]-2,5-diphenyltetrazolium bromide) assays were performed (Haselsberger, K.; Peterson, D. C.; Thomas, D. G.; Darling, J. L. Anti Cancer Drugs 1996, 7, 331-8; Loveland, B. E.; Johns, T. G.; Mackay, I. R.; Vaillant, F.; Wang, Z. X.; Hertzog, P. J. Biochemistry International 1992, 27, 501-10). In short: cells were seeded into 96-well plates according to doubling time and incubated overnight at 37° C. Test compounds were made up in DMSO and a 1/3 dilution series prepared in 100 μL cell media, added to cells (in triplicates) and incubated for 72 ho at 37° C. MTT was made up as a stock of 5 mg/mL in cell media and filter-sterilised. Media was removed from cells followed by a wash with 200 μL PBS. MTT solution was then added at 20 μL per well and incubated in the dark at 37° C. for 4 h. MTT solution was removed and cells again washed with 200 μL PBS. MTT dye was solubilised with 200 μL per well of DMSO with agitation.

For assay [5], the system named is Saos-2. Nature of the assay: 72-h MTT cytotoxicity assay, Saos-2. The assay is classed as cell-based. The following applies: Homo sapiens, SAOS-2, read-out: 72-h MTT in vitro IC50 (μM) Saos-2; Table 1; 72 h. As for the experimental part:
as §1

Structures are written as SMILES. Like-named read-outs stand apart in the source and are kept apart here.

CDK4/cyclin D1, sequence (P11802 whole entry): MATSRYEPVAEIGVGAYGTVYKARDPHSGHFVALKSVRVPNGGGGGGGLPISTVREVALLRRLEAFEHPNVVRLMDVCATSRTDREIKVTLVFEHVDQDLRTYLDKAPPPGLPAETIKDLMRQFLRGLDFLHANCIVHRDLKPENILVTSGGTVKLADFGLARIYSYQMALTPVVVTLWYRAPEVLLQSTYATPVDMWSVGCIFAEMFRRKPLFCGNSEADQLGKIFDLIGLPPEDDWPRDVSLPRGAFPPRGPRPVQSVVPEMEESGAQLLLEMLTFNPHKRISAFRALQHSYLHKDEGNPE
CDK4/cyclin D1, sequence (P24385 whole entry partner): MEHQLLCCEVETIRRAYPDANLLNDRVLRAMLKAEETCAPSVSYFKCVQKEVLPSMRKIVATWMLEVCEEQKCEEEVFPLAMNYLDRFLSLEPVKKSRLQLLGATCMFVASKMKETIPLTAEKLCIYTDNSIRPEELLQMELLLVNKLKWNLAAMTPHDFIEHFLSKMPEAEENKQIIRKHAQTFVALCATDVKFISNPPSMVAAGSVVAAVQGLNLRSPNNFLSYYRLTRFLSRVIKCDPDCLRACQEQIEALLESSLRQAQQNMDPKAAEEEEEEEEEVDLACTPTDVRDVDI

With `Cc1c(-c2ccnc(Nc3ccc(Cl)cc3)n2)sc(=O)n1C` [Compound 35, 5-[2-(4-Chloro-phenylamino)-pyrimidin-4-yl]-3,4-dimethyl-3H-thiazol-2-one], the IC50 was 0.89 µM in assay [1]; 0.11 µM in assay [2]; 1.09 µM in assay [3]; 0.4 µM in assay [4]; 2.78 µM in assay [5].
On to `Cc1ccc(Nc2nccc(-c3sc(=O)n(C)c3C)n2)cc1I` [Compound 40, 5-[2-(3-Iodo-4-methyl-phenylamino)-pyrimidin-4-yl]-3,4-dimethyl-3H-thiazol-2-one], for which the IC50 amounted to 6.63 µM in assay [1]; 0.7 µM in assay [2]; 3.98 µM in assay [3] (read-out: Kinase inhibition, IC50 (μM) CDK4/D1, Table 1); 7.74 µM in assay [4]; 22 µM in assay [5].
With `COc1ccc(Nc2nccc(-c3sc(N)nc3C)n2)cc1` [Compound 8, [4-(2-Amino-4-methyl-thiazol-5-yl)-pyrimidin-2-yl]-(4-methoxy-phenyl)-amine], the IC50 was 1.55 µM in assay [1]; 0.34 µM in assay [2]; 0.42 µM in assay [3]; 2.71 µM in assay [4]; 1.32 µM in assay [5].
In the same order, the values of `Cc1c(-c2ccnc(Nc3ccc(F)c([N+](=O)[O-])c3)n2)sc(=O)n1C` [Compound 38, 5-[2-(4-Fluoro-3-nitro-phenylamino)-pyrimidin-4-yl]-3,4-dimethyl-3H-thiazol-2-one] are 1.12 µM, 0.12 µM, 2.33 µM, 0.55 µM and 2.17 µM.
In the same order, the values of `Cc1nc(N)sc1-c1ccnc(Nc2cccc(O)c2)n1` [Compound 13, 3-[4-(2-Amino-4-methyl-thiazol-5-yl)-pyrimidin-2-ylamino]-phenol] are 0.95 µM, 0.04 µM, 0.45 µM, 2.87 µM and 0.52 µM.
Take `COc1ccc(Nc2nccc(-c3sc(C)nc3C)n2)cc1N(C)C` [Compound 28, N^1-[4-(2,4-Dimethyl-thiazol-5-yl)-pyrimidin-2-yl]-4-methoxy-N^3,N^3-dimethyl-benzene-1,3-diamine]: the IC50 in assay [1] was 2.07 µM; in assay [2], 0.56 µM; in assay [3] it was 2.88 µM; in assay [4], 2.23 µM; in assay [5], 1.59 µM.
Consider `Cc1nc(NS(C)(=O)=O)sc1-c1ccnc(Nc2cccc([N+](=O)[O-])c2)n1` [Compound 56, N-{4-Methyl-5-[2-(3-nitro-phenylamino)-pyrimidin-4-yl]-thiazol-2-yl}-methane sulfonamide], for which the IC50 amounted to 0.1 µM in assay [1]; 0.01 µM in assay [2]; 1.13 µM in assay [3]; 0.17 µM in assay [4]; 0.16 µM in assay [5].
In the same order, the values of `COc1ccc(Nc2nccc(-c3sc(=O)n(C)c3C)n2)cc1` [Compound 36, 5-[2-(4-Methoxy-phenylamino)-pyrimidin-4-yl]-3,4-dimethyl-3H-thiazol-2-one] are 0.68 µM, 0.25 µM, 0.96 µM, 0.69 µM and 3.53 µM.
Take `CNc1nc(C)c(-c2ccnc(Nc3ccc(I)c([N+](=O)[O-])c3)n2)s1` [Compound 30, (4-Iodo-3-nitro-phenyl)-[4-(4-methyl-2-methylamino-thiazol-5-yl)-pyrimidin-2-yl]-amine]: the IC50 in assay [1] worked out at 0.94 µM; in assay [2], 0.12 µM; in assay [3], 0.25 µM; in assay [4], 1.07 µM; in assay [5] it was 2.31 µM.
In the same order, the values of `Cc1nc(NC(=O)CCl)sc1-c1ccnc(Nc2cccc([N+](=O)[O-])c2)n1` [Compound 60, 2-Chloro-N-{4-methyl-5-[2-(3-nitro-phenylamino)-pyrimidin-4-yl]-thiazol-2-yl}-acetamide] are 0.15 µM, 0.07 µM, 0.86 µM, 0.25 µM and 0.21 µM.
In the same order, the values of `Cc1nc(NCCO)sc1-c1ccnc(Nc2cccc([N+](=O)[O-])c2)n1` [Compound 58, 2-{4-Methyl-5-[2-(3-nitro-phenylamino)-pyrimidin-4-yl]-thiazol-2-ylamino}-ethanol] are 0.01 µM, 0.004 µM, 0.11 µM, 0.09 µM and 0.06 µM.
